According to US20110081674A1, “CONTINUOUS-FLOW DEFORMABILITY-BASED CELL SEPARATION” (priority 2009, published 2011):

System: red blood cells (RBCs)
Experiment: Deformability and mobility of glutaraldehyde-treated red blood cells at slits of the microfluidic device
Type: cell-based
Text: FIG. 4 illustrates embodiments of: A. red blood cells (RBCs) aligned at the entrance of a 1 μm slit under a pressure difference of 40 kPa. […] Because the surface-area to volume ratio of RBCs is constrained, they are unable to pass through slits less than a certain gap width apart. B. RBCs treated with 0.1% Glutaraldehyde (GA) maintain their biconcave structure at the entrance of 2 μm slits under a pressure difference of 40 kPa. Glutaraldehyde cross-links proteins in the membrane and in the cytosol of RBCs, making them stiffer. […] C. Mobility vs. GA concentration. […] The slit gap is the vertical gap that defines the spacing between the two substrates at the trenches area. These are the shallow regions of a unit of the sorter.
With reference to FIG. 4A, a solution of PBS 1× and 0.2% w/v Pluronic F108 (a surfactant) and Bovine Serum Albumin 1% w/v (another surfactant) was prepared. The device was filled with this solution by applying pressure to one of the reservoirs. 1 μL of whole blood was mixed with 100 μL of this solution. The mixture was injected into the entrance reservoir of the device shown by using a syringe. The pressure difference between the two reservoirs was 40 kPa and was generated by using a pressure regulator. The cell concentration was approximately 0.5% hematocrit. Mobility was measured by tracking individual cells over a distance of 100 μm.

## O=CCCCC=O [Glutaraldehyde]
RBCs treated with 0.1% Glutaraldehyde, 2 μm slits, pressure difference 40 kPa
  Ability of treated RBCs to deform and pass through slits: unable to pass through 2 μm slits
Higher GA concentration, given ambient fluid velocity
  Mobility vs. GA concentration: decreased mobility
